According to patent US12643910B2, “Substituted pyrazolo[3,4-b]pyridines as ectonucleotide pyrophosphatase/phosphodiesterase 1 (ENPP1) modulators” (SANFORD BURNHAM PREBYS MEDICAL DISCOVERY INSTITUTE, priority 2019, dated 2026):

Legend:
[1] = target: T1, human ENPP1 (Homo sapiens, UniProt P22413); assay: ENPP1 assay with ATP substrate (Transcreener AMP2/GMP2 TR-FRET); type: biochemical; conditions: 1 hour at room temperature
T1 construct: made in house
T1 sequence (P22413 1-925): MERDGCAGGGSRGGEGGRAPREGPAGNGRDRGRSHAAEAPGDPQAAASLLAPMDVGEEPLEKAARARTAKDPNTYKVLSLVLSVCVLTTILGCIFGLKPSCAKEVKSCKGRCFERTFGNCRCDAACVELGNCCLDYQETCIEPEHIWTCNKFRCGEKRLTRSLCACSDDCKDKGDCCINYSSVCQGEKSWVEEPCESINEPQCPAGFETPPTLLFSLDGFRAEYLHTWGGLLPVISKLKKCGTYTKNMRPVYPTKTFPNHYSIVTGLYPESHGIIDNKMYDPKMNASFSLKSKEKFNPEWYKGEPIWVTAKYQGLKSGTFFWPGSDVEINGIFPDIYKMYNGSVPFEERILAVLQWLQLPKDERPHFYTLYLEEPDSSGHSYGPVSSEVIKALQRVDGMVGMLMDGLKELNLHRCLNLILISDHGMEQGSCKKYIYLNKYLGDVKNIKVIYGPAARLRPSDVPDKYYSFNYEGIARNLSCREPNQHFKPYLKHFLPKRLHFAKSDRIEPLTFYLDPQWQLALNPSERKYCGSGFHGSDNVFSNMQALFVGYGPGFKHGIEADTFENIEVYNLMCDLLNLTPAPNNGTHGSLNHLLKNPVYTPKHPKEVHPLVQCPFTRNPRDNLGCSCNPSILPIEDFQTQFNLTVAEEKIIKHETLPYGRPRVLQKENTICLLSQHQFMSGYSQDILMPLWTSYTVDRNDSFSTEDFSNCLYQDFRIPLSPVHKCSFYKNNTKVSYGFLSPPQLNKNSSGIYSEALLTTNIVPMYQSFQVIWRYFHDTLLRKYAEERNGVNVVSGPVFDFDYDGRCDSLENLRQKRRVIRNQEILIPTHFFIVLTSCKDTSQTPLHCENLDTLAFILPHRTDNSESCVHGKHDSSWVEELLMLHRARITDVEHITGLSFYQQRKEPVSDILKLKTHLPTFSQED
From the text: Example B1: ENPP1 Assay with ATP Substrate
Ectonucleotide pyrophosphatase/phosphodiesterase 1 (ENPP1) hydrolyzes ATP, breaking it down into 5′-AMP and pyrophosphate. The 5′-AMP formed from the reaction is detected by Transcreener® AMP2/GMP2 TR-FRET Assay (Bellbrook), containing AMP-tracer (HiLyte 647) and anti-AMP Terbium (Tb) donor. 5′-AMP generated in the reaction competes with AMP-tracer for binding with Anti-AMP Tb donor, and decreases TR-FRET signal.
Different concentrations of ENPP1 inhibitors are added to dry assay plate, followed by 2 μl 300 nM ATP. The reaction is initiated with the addition of 2 μl 8.5 μM human ENPP1 (generated by SBP Protein group). The assay reaction mixture contains a buffer of 50 mM Tris, pH 7.5, 1 mM TCEP, 2 mM MgCl2, 0.005% Tween 20, and 1% DMSO. The reaction is stopped after 1 hour at room temperature by adding 2 μL of 2 nM AMP-tracer and 2 μl of 2 nM Anti-AMP Tb donor in the 50 mM Tris, pH 7.5, buffer containing 20 mM EDTA and 0.1% Prionex. After 2 hour additional incubation at room temperature, the generated signal is measured using BMG Lab PHERASTAR instrument. 100% activity control samples (containing enzyme, substrate, buffer: MAX) and no enzyme control samples (containing substrate and buffer: MIN) are utilized to calculate percent inhibition (%) for each compound concentration well (COMPOUND) as follows.
The IC50 values are determined by fitting the inhibition curves with 2-parameter variable slope model in Graphpad Prism software using percent inhibition vs compound concentration data: […]

[2] = target: T2, ENPP3 (Homo sapiens, UniProt O14638); assay: ENPP3 Km ATP assay; type: biochemical; conditions: ATP at Km
T2 sequence (O14638 1-875): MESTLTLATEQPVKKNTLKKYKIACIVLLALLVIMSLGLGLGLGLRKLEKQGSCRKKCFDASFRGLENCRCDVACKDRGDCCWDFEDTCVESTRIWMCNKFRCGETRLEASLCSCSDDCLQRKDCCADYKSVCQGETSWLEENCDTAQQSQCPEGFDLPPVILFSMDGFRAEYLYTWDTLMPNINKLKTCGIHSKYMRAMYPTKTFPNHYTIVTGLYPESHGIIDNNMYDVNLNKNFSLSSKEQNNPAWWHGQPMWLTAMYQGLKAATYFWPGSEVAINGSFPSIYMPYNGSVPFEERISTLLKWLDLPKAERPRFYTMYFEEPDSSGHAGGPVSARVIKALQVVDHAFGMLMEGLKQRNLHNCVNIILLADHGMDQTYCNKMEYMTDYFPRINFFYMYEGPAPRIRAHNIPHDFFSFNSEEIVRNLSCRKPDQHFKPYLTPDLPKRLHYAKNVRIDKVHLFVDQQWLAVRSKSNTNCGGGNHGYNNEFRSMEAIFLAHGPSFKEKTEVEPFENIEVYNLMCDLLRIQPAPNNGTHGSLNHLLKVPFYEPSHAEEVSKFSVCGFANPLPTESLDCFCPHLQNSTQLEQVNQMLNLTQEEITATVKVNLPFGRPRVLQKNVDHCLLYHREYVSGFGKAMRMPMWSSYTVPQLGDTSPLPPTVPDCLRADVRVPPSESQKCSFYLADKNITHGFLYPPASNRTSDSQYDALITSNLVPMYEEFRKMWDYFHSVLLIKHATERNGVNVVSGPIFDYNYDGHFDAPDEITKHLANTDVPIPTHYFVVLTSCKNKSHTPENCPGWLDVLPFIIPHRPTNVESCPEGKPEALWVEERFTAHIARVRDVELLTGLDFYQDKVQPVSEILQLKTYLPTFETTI

| SMILES | IC50 [1] [µM] | IC50 [2] [µM] |
| --- | --- | --- |
| Cc1csc2c(N3CCC(NCCCc4ccccc4F)CC3)ncnc12 [Example 3.33, N-(3-(2-Fluorophenyl)propyl)-1-(7-methylthieno[3,2-d]pyrimidin-4-yl)piperidin-4-amine] | 0.1 to 1 | > 20 |
| CCn1ncc2c(NCc3ccc(S(N)(=O)=O)cc3)nc(Cl)nc21 [Example 2.83, 4-((6-Chloro-1-ethyl-1H-pyrazolo[3,4-d]pyrimidin-4-yl)aminomethyl)benzenesulfonamide] | < 0.1 | 1 to 20 |
| Cn1ncc2c(NCc3ccc(S(N)(=O)=O)cn3)ccnc21 [Example 2.71, 6-(((1-Methyl-1H-pyrazolo[3,4-b]pyridin-4-yl)amino)methyl)pyridine-3-sulfonamide] | < 0.1 | 0.1 to 1 |
| O=C(CCc1ccc(F)cc1)NC1CCN(c2ncnc3ccsc23)CC1 [Example 3.46, 3-(4-Fluorophenyl)-N-(1-(thieno[3,2-d]pyrimidin-4-yl)piperidin-4-yl)propanamide] | > 20 | > 20 |
| CC(C)CCOc1nc(NCc2ccc(S(N)(=O)=O)cc2)c2cnn(C)c2n1 [Example 2.101, 4-((1-Methyl-6-(3-methylbutoxy)-1H-pyrazolo[3,4-d]pyrimidin-4-yl)aminomethyl)-benzenesulfonamide] | < 0.1 | 0.1 to 1 |
| CN1CCC(n2ncc3c(NCc4ccc(S(N)(=O)=O)cc4)ncnc32)CC1 [Example 2.43, 4-(((1-(1-Methylpiperidin-4-yl)-1H-pyrazolo[3,4-d]pyrimidin-4-yl)amino)methyl)-benzenesulfonamide] | > 20 | 1 to 20 |
| Cc1nc(NCc2ccc(S(N)(=O)=O)cc2)c2c3c(sc2n1)CCCC3 [Example 1.64, 4-((2-Methyl-5,6,7,8-tetrahydro[1]benzothieno[2,3-d]pyrimidin-4-yl)aminomethyl)-benzenesulfonamide] | > 20 | 1 to 20 |
| CNc1nc(NCc2ccc(S(N)(=O)=O)cc2)c2cnn(C)c2n1 [Example 2.27, 4-(((1-Methyl-6-(methylamino)-1H-pyrazolo[3,4-d]pyrimidin-4-yl)amino)methyl)-benzenesulfonamide] | < 0.1 | 0.1 to 1 |
| Cc1csc2c(N3CCC(NC(=O)COc4ccc(F)cc4)CC3)ncnc12 [Example 3.22, 2-(4-Fluorophenoxy)-N-(1-(7-methylthieno[3,2-d]pyrimidin-4-yl)piperidin-4-yl)acetamide] | 1 to 20 | > 20 |
| Cc1csc2nc(-c3ccccn3)nc(NCc3ccc(S(N)(=O)=O)s3)c12 [Example 1.37, 5-(((5-Methyl-2-(pyridin-2-yl)thieno[2,3-d]pyrimidin-4-yl)amino)methyl)thiophene-2-sulfonamide] | > 20 | – |
| Cn1ncc2c(NCc3ccccn3)nc(-c3ccccn3)nc21 [Example 2.19, 1-Methyl-6-(pyridin-2-yl)-N-(pyridin-2-ylmethyl)-1H-pyrazolo[3,4-d]pyrimidin-4-amine] | > 20 | – |
| Cn1ncc2c(NCc3cccnc3)nc(-c3ccccn3)nc21 [Example 2.18, 1-Methyl-6-(pyridin-2-yl)-N-(pyridin-3-ylmethyl)-1H-pyrazolo[3,4-d]pyrimidin-4-amine] | > 20 | – |
| Cn1ncc2c(NCc3ccc(S(N)(=O)=O)cc3)nc(-c3cccnc3)nc21 [Example 2.15, 4-(((1-Methyl-6-(pyridin-3-yl)-1H-pyrazolo[3,4-d]pyrimidin-4-yl)amino)methyl)-benzenesulfonamide] | 1 to 20 | – |
| COc1nc(N2CCC(NCCCc3cnccc3C)CC2)c2scc(C)c2n1 [Example 3.70, 1-(2-Methoxy-7-methylthieno[3,2-d]pyrimidin-4-yl)-N-(3-(4-methylpyridin-3-yl)propyl)piperidin-4-amine] | 0.1 to 1 | – |
| Cn1ncc2c(NCc3ccc(S(N)(=O)=O)cc3)nc(-c3ccccc3)nc21 [Example 2, 4-(((1-Methyl-6-phenyl-1H-pyrazolo[3,4-d]pyrimidin-4-yl)amino)methyl)-benzenesulfonamide] | 1 to 20 | – |
| CNc1nc(N2CCC(NCCCc3cnccc3C)CC2)c2scc(C)c2n1 [Example 3.69, N,7-Dimethyl-4-(4-((3-(4-methylpyridin-3-yl)propyl)amino)piperidin-1-yl)thieno[3,2-d]pyrimidin-2-amine] | 1 to 20 | – |
| Cc1csc2c(N3CCC(NCC4CC4c4ccncc4)CC3)ncnc12 (stereo not drawn) [Example 3.81, 1-(7-Methylthieno[3,2-d]pyrimidin-4-yl)-N-((2-(pyridin-4-yl)cyclopropyl)methyl)piperidin-4-amine] | 0.1 to 1 | – |
| c1ccc(-c2csc3nc(-c4ccccn4)nc(NCc4ccccn4)c23)cc1 [Example 1.2, (5-Phenyl-2-pyridin-2-yl-thieno[2,3-d]pyrimidin-4-yl)-pyridin-2-ylmethyl-amine] | > 20 | – |
| Cc1csc2c(N3CCC(NCCCc4ccncc4)CC3)nc(Cl)nc12 [Example 3.65, 1-(2-Chloro-7-methylthieno[3,2-d]pyrimidin-4-yl)-N-(3-(pyridin-4-yl)propyl)piperidin-4-amine] | 1 to 20 | – |
| Cn1ncc(CNc2nc(-c3ccccn3)nc3scc(-c4ccccc4)c23)c1N [Example 1.34, (5-Amino-1-methyl-1H-pyrazol-4-ylmethyl)-(5-phenyl-2-pyridin-2-yl-thieno[2,3-d]pyrimidin-4-yl)-amine] | 1 to 20 | – |
| Cn1ncc2c(NCc3ccc(S(N)(=O)=O)cc3)nc(-c3ccncc3)nc21 [Example 2.16, 4-(((1-Methyl-6-(pyridin-4-yl)-1H-pyrazolo[3,4-d]pyrimidin-4-yl)amino)methyl)-benzenesulfonamide] | > 20 | – |
| Cc1ccncc1/C=C/CNC1CCN(c2ncnc3c(Br)csc23)CC1 [Example 3.62, (E)-1-(7-Bromothieno[3,2-d]pyrimidin-4-yl)-N-(3-(4-methylpyridin-3-yl)allyl)piperidin-4-amine] | < 0.1 | – |
| Cc1ccc(CNc2nc(-c3ccccn3)nc3c2cnn3C)o1 [Example 2.22, 1-Methyl-N-((5-methylfuran-2-yl)methyl)-6-(pyridin-2-yl)-1H-pyrazolo[3,4-d]pyrimidin-4-amine] | > 20 | – |
| Cc1ccncc1CCCNC1CCN(c2nc(Cl)nc3c(C)csc23)CC1 [Example 3.68, 1-(2-Chloro-7-methylthieno[3,2-d]pyrimidin-4-yl)-N-(3-(4-methylpyridin-3-yl)propyl)piperidin-4-amine] | 1 to 20 | – |
